Values of other authors in patent US20020048551A1, “Delivery of biologically active material in a liposomal formulation for administration into the mouth” (priority 1999, published 2002).

Conditions: tablet absorbed through the buccal mucosa

SMILES: C[C@]12CCC(=O)C=C1CC[C@@H]1[C@@H]2CC[C@@]2(C)[C@H]1CC[C@]2(C)O [methyltestosterone]
- androgenic activity relative to oral tablets: twice
